Measured values published in the supplement of paper PMC12076712.

How the values were obtained:
Experiment in all cases: pIC50, kinobeads binding competition
DYRK1B = DYRK1B (UniProt Q9Y463)
Procedure, shortened: (§1)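 Fold changes relative to vehicle, from biological duplicates, were fitted with logistic dose-response models in the R drc package to give pIC50. These fold changes came from TMT10 LC-MS/MS quantification of digested Kinobeads-bound proteins. Compound was applied at nine concentrations (top 30 μM) either to live Jurkat cells in 1:4 steps for 60 min at 37 °C before lysis, or to Jurkat lysate or a 1:1:1:1 HEK293/K-562/HepG2/placenta lysate mix in 1:5 steps for 60 min at 4 °C.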

EGFR = EGFR (UniProt P00533); settings: cell material: Lysate mix
Procedure, shortened: as §1

MARK4 = target: T1, MARK4 (UniProt Q96L34)
T1 sequence (whole entry): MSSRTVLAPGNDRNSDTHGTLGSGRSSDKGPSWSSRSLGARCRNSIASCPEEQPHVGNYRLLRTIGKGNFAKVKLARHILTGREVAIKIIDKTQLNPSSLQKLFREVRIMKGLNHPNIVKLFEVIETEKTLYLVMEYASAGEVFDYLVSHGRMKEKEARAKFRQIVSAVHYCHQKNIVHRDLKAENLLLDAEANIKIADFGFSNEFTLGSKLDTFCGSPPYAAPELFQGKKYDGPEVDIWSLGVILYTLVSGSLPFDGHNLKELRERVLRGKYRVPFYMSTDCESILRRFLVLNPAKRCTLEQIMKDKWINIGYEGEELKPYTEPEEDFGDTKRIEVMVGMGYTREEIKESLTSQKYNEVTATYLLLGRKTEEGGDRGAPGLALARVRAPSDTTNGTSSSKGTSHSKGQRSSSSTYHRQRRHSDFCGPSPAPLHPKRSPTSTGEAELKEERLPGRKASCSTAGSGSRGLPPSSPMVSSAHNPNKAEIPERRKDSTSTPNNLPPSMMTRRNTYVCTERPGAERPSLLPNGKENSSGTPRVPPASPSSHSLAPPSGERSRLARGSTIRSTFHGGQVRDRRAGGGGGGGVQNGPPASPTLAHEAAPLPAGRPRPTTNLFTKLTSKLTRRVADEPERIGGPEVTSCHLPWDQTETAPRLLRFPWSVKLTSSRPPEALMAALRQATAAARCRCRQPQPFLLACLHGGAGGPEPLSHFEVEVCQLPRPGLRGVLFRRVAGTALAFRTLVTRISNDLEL
Procedure, shortened: as §1

MYLK3 = target: T2, MYLK3 (UniProt Q32MK0); settings: cell material: Lysate mix
T2 sequence (whole entry): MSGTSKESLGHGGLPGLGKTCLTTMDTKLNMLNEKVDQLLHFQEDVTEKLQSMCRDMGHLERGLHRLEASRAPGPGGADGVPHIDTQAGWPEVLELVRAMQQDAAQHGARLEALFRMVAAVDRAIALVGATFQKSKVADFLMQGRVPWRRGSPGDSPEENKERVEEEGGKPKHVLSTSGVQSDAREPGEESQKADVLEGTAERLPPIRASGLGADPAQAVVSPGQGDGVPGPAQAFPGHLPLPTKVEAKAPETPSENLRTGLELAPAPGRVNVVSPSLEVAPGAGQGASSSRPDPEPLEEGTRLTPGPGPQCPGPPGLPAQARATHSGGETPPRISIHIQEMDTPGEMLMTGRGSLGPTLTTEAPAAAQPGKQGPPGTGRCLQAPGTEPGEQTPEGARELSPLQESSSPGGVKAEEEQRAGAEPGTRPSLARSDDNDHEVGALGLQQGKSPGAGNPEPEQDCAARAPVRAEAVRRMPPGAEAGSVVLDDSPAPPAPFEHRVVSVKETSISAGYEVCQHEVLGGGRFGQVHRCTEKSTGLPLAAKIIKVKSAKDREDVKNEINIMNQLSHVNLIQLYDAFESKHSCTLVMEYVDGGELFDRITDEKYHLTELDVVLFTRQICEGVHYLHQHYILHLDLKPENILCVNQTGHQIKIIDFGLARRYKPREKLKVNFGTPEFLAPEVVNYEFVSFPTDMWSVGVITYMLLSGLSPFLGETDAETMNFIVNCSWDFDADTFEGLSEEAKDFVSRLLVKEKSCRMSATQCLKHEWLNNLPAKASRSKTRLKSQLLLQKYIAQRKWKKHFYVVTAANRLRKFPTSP
Procedure, shortened: as §1

UniProt P06493 = target: UniProt P06493
Procedure, shortened: as §1

UniProt P17612 = target: UniProt P17612
Procedure, shortened: as §1

UniProt Q13557 = target: UniProt Q13557
Procedure, shortened: as §1

UniProt Q9NSY1 = target: UniProt Q9NSY1
Procedure, shortened: as §1

UniProt Q13557, sequence (Q13557 whole entry): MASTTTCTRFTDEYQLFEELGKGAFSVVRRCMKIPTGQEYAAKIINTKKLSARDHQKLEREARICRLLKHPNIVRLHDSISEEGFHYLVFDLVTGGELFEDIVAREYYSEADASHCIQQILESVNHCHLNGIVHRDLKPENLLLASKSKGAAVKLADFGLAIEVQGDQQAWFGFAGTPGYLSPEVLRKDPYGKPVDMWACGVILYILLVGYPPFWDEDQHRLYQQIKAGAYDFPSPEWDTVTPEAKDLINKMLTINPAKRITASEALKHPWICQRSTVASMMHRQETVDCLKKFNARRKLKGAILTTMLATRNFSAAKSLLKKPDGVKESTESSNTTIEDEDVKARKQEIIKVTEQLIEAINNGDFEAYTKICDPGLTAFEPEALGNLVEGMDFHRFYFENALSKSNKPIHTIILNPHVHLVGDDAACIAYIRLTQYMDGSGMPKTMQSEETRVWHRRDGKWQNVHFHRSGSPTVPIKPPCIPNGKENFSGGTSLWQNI
DYRK1B, sequence (Q9Y463 whole entry, looked up): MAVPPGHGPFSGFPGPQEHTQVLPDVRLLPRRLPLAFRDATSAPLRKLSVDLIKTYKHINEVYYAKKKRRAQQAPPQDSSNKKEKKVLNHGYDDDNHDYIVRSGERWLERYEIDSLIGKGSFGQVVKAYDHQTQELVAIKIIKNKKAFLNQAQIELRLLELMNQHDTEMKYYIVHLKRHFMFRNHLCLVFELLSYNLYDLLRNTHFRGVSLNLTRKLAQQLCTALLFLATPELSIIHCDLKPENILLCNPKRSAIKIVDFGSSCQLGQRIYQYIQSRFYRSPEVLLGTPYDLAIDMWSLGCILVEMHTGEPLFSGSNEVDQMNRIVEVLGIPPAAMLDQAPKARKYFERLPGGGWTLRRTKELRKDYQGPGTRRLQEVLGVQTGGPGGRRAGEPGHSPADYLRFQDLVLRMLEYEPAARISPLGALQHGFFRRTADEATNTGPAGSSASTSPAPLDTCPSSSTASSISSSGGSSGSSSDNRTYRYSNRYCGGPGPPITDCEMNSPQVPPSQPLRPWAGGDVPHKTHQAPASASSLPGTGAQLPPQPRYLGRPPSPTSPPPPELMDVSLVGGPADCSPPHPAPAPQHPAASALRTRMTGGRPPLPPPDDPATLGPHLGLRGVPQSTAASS
UniProt P06493, sequence (P06493 whole entry, looked up): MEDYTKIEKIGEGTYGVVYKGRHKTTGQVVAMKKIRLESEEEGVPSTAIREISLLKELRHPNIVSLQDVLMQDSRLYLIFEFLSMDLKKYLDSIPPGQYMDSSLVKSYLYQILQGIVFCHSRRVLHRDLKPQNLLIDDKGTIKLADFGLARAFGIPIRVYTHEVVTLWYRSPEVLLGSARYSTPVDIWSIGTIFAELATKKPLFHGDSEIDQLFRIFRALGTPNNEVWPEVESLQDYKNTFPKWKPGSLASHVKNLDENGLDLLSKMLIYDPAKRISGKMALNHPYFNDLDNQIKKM
UniProt Q9NSY1, sequence (Q9NSY1 whole entry, looked up): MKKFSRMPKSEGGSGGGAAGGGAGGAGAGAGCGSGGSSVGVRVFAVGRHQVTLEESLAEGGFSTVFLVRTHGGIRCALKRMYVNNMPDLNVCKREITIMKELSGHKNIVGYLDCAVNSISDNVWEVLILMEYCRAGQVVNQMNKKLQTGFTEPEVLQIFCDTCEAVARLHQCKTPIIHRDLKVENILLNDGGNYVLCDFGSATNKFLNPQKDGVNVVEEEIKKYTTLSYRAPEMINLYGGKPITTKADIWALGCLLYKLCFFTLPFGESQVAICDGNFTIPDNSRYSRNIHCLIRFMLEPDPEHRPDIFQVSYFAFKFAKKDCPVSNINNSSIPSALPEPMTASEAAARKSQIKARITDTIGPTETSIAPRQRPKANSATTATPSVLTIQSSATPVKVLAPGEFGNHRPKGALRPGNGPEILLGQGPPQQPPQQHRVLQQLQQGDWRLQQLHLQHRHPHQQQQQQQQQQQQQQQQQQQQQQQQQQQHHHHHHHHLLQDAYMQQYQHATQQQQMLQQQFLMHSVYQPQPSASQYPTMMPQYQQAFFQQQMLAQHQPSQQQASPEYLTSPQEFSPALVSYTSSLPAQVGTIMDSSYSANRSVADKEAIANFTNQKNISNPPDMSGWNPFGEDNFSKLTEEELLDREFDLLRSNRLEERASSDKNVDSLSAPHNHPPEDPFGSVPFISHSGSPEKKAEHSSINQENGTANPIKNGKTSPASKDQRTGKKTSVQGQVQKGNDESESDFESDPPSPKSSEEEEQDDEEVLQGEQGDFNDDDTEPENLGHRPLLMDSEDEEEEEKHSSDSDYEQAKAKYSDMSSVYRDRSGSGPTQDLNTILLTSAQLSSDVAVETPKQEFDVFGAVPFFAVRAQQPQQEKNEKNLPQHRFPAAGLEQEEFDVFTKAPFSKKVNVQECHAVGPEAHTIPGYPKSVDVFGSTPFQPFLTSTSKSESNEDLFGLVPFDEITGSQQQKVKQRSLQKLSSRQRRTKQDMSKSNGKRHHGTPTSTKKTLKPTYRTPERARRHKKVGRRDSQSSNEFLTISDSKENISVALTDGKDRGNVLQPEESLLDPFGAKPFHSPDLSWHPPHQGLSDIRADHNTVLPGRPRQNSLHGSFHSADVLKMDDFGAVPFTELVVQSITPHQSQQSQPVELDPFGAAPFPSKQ
EGFR, sequence (P00533 whole entry): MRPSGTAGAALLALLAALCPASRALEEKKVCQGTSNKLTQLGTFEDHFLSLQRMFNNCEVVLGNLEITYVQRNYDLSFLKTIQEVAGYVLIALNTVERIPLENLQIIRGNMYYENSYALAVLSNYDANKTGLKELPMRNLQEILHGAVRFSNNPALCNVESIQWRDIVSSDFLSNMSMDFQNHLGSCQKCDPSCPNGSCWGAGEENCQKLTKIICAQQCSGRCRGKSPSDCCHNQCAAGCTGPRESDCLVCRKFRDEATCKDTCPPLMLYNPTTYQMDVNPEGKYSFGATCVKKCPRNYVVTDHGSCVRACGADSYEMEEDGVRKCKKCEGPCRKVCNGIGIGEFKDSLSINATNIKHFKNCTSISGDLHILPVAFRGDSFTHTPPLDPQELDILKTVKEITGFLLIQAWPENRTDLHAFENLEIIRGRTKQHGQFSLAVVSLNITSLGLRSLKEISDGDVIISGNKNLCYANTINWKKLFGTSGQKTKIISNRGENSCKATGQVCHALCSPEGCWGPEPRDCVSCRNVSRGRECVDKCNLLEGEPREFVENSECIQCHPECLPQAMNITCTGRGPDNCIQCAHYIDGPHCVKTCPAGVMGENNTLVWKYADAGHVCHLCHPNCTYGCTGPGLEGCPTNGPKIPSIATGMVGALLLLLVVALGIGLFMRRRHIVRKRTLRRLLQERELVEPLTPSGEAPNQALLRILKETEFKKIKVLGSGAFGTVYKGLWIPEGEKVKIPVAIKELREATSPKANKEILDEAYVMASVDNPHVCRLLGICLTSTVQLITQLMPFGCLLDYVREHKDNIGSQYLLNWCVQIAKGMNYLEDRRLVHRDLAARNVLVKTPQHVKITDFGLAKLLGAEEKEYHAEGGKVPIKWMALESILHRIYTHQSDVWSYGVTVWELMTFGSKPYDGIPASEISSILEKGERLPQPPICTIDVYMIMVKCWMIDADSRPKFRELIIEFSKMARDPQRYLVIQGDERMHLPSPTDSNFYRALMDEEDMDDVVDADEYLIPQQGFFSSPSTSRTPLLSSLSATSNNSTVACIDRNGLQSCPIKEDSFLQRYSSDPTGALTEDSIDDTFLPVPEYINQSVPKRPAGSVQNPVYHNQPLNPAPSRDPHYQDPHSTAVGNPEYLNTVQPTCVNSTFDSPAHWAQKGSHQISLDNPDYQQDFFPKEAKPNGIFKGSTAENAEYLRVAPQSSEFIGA

| SMILES | pIC50 (DYRK1B; cell material: Lysate mix) | pIC50 (EGFR) | pIC50 (MARK4; cell material: Lysate mix) | pIC50 (MYLK3) | pIC50 (UniProt P06493; cell material: Lysate mix) | pIC50 (UniProt P17612; cell material: Lysate mix) | pIC50 (UniProt Q13557; cell material: Lysate mix) | pIC50 (UniProt Q9NSY1; cell material: Lysate mix) | pIC50 (DYRK1B; cell material: Jurkat cells) | pIC50 (DYRK1B; cell material: Jurkat lysate) | pIC50 (MARK4; cell material: Jurkat cells) | pIC50 (MARK4; cell material: Jurkat lysate) | pIC50 (UniProt P06493; cell material: Jurkat cells) | pIC50 (UniProt P06493; cell material: Jurkat lysate) | pIC50 (UniProt P17612; cell material: Jurkat cells) | pIC50 (UniProt P17612; cell material: Jurkat lysate) | pIC50 (UniProt Q13557; cell material: Jurkat cells) | pIC50 (UniProt Q13557; cell material: Jurkat lysate) | pIC50 (UniProt Q9NSY1; cell material: Jurkat cells) | pIC50 (UniProt Q9NSY1; cell material: Jurkat lysate) |
| --- | --- | --- | --- | --- | --- | --- | --- | --- | --- | --- | --- | --- | --- | --- | --- | --- | --- | --- | --- | --- |
| CCNC(=O)c1cc(Nc2cc(C)[nH]n2)nc(N2CCN(Cc3ccc(S(=O)(=O)F)cc3)CC2)n1 | < 4.52 | 5.78 | < 4.52 | < 4.52 | < 4.52 | < 4.52 | < 4.52 | < 4.52 |  |  |  |  |  |  |  |  |  |  |  |  |
| CCNC(=O)c1cc(Nc2cc(C3CC3)[nH]n2)nc(N2CCN(Cc3ccc(S(=O)(=O)F)cc3)CC2)n1 | 5.08 | 5.3 | 4.93 | 4.69 | 5.5 | < 4.52 | < 4.52 | < 4.52 |  |  |  |  |  |  |  |  |  |  |  |  |
| Cc1cc(Nc2cc(C(=O)NCCNC(=O)OC3CC/C=C/CCC3)nc(N3CCN(Cc4ccc(S(=O)(=O)F)cc4)CC3)n2)n[nH]1 (configuration not stated) | < 4.52 | < 4.52 | < 4.52 | < 4.52 | < 4.52 | < 4.52 | < 4.52 | < 4.52 |  |  |  |  |  |  |  |  |  |  |  |  |
| C#CCNC(=O)c1cc(Nc2cc(C3CC3)[nH]n2)nc(N2CCN(Cc3ccc(S(=O)(=O)F)cc3)CC2)n1 | < 4.52 | 5.4 | 4.81 | < 4.52 | 5.7 | < 4.52 | < 4.52 | < 4.52 | 5.47 | < 4.52 | 5.98 | < 4.52 | 6.32 | 5.37 | < 4.52 | < 4.52 | 4.9 | < 4.52 | 5.24 | < 4.52 |
| C#CCNC(=O)c1cc(Nc2cc(C)[nH]n2)nc(N2CCN(Cc3ccc(S(=O)(=O)F)cc3)CC2)n1 | < 4.52 | 5.56 | < 4.52 | < 4.52 | < 4.52 | < 4.52 | < 4.52 | < 4.52 |  |  |  |  |  |  |  |  |  |  |  |  |
| O=C(NCCNC(=O)c1cc(Nc2cc(C3CC3)[nH]n2)nc(N2CCN(Cc3ccc(S(=O)(=O)F)cc3)CC2)n1)OC1CC/C=C/CCC1 (configuration not stated) | < 4.52 | < 4.52 | < 4.52 | < 4.52 | < 4.52 | < 4.52 | < 4.52 | < 4.52 | 4.8 | < 4.52 | 5.44 | < 4.52 | 5.11 | < 4.52 | < 4.52 | < 4.52 | < 4.52 | < 4.52 | < 4.52 | < 4.52 |
